Experimental data: patent USRE39591E1, “6-O-substituted ketolides having antibacterial activity” (Abbott Laboratories, priority 1996, dated 2007)
≈ marks a conversion by molar mass, not a printed value.

System: up to 32 different microorganisms
Experiment: in vitro antibacterial activity (MIC), agar dilution on Brain Heart Infusion (BHI) agar with Steers replicator
Type: cell-based
Conditions: unit assumed
Method: Representative compounds of the present invention were assayed in vitro for antibacterial activity as follows: Twelve petri dishes containing successive aqueous dilutions of the test compound mixed with 10 mL of sterilized Brain Heart Infusion (BHI) agar (Difco 0148-01-5) were prepared. Each plate was inoculated with 1:100 (or 1:10 for slow-growing strains, such as Micrococcus and Streptococcus) dilutions of up to 32 different microorganisms, using a Steers replicator block. The inoculated plates were incubated at 35°-37° C. for 20 to 24 hours. In addition, a control plate, using BHI agar containing no test compound, was prepared and incubated at the beginning and end of each test.
An additional plate containing a compound having known susceptibility patterns for the organisms being tested and belonging to the same antibiotic class as the test compound was also prepared and incubated as a further control, as well as to provide test-to-test comparability. Erythromycin A was used for this purpose.
After incubation, each plate was visually inspected. The minimum inhibitory concentration (MIC) was defined as the lowest concentration of drug yielding no growth, a slight haze, or sparsely isolated colonies on the inoculum spot as compared to the growth control.

[1] = Candida albicans CCH 442 (code TT)
[2] = Enterococcus faecism ATCC 8043 (code II)
[3] = Escherichia coli DC-2 (code SS)
[4] = Escherichia coli JUHL (code QQ)
[5] = Haemophilis influenzae DILL AMP R (code WW)
[6] = Micrococcus luteus ATCC 4698 (code PP)
[7] = Micrococcus luteus ATCC 9341 (code OO)
[8] = Mycobacterium smegmatis ATCC 114 (code UU)
[9] = Nocardia Asteroides ATCC9970 (code VV)
[10] = Staphylococcus aureus 1775 (code GG)
[11] = Staphylococcus aureus A5177 (code BB)
[12] = Staphylococcus aureus A-5278 (code CC)
[13] = Staphylococcus aureus ATCC 6538P (code AA)
[14] = Staphylococcus aureus CMX 553 (code FF)
[15] = Staphylococcus aureus CMX 642A (code DD)
[16] = Staphylococcus aureus NCTC10649M (code EE)
[17] = Staphylococcus epidermidis 3519 (code HH)
[18] = Streptococcus Pneumonia 5649 (code ZZA)
[19] = Streptococcus Pneumonia 5979 (code ZZ)
[20] = Streptococcus Pneumonia ATCC6303 (code XX)
[21] = Streptococcus Pneumonia GYR 1171 (code YY)
[22] = Streptococcus agalactiae CMX 508 (code KK)
[23] = Streptococcus bovis A-5169 (code JJ)
[24] = Streptococcus pyogenes 930 (code MM)
[25] = Streptococcus pyogenes EES61 (code LL)
[26] = Streptococcus pyogenes PIU 2548 (code NN)

Row | Compound | MIC [1] | MIC [2] | MIC [3] | MIC [4] | MIC (Escherichia coli SS (code RR)) | MIC [5] | MIC [6] | MIC [7] | MIC [8] | MIC [9] | MIC [10] | MIC [11] | MIC [12] | MIC [13] | MIC [14] | MIC [15] | MIC [16] | MIC [17] | MIC [18] | MIC [19] | further results
1 | CCC1OC(=O)C(C)C(=O)C(C)C(OC2OC(C)CC(N(C)C)C2O)C(C)(OCC=Cc2cccnc2)CC(C)C(=O)C(C)C2NC(=O)OC12C (stereo not drawn) [Example 185, R is —CH2CH═CH-(3-pyridyl)] | > 100 µg/mL | 0.05 µg/mL (≈ 0.0698 µM) | 100 µg/mL (≈ 140 µM) | 100 µg/mL (≈ 140 µM) | 0.39 µg/mL (≈ 0.545 µM) | 1 µg/mL (≈ 1.4 µM) | 0.1 µg/mL (≈ 0.14 µM) | 0.01 µg/mL (≈ 0.014 µM) | 3.1 µg/mL (≈ 4.33 µM) | 0.1 µg/mL (≈ 0.14 µM) | > 100 µg/mL | 0.1 µg/mL (≈ 0.14 µM) | > 100 µg/mL | 0.1 µg/mL (≈ 0.14 µM) | 0.1 µg/mL (≈ 0.14 µM) | 0.1 µg/mL (≈ 0.14 µM) | 0.1 µg/mL (≈ 0.14 µM) | 0.1 µg/mL (≈ 0.14 µM) | 0.5 µg/mL (≈ 0.698 µM) | > 128 µg/mL | MIC [20]: 0.03 µg/mL (≈ 0.0419 µM); MIC [21]: 0.03 µg/mL (≈ 0.0419 µM); MIC [22]: 0.01 µg/mL (≈ 0.014 µM); MIC [23]: ≤ 0.005 µg/mL; MIC [24]: > 100 µg/mL; MIC [25]: 0.01 µg/mL (≈ 0.014 µM); MIC [26]: 0.2 µg/mL (≈ 0.279 µM)
2 | CCC1OC(=O)C(C)C(=O)C(C)C(OC2OC(C)CC(N(C)C)C2O)C(C)(OCC=Cc2ccc3ccccc3c2)CC(C)C(=O)C(C)C2NC(=O)OC12C (stereo not drawn) [Example 186, R is —CH2CH═CH-(2-naphthyl)] | > 100 µg/mL | 0.05 µg/mL (≈ 0.0654 µM) | > 100 µg/mL | > 100 µg/mL | 0.39 µg/mL (≈ 0.51 µM) | 16 µg/mL (≈ 20.9 µM) | 0.1 µg/mL (≈ 0.131 µM) | < 0.005 µg/mL | 0.2 µg/mL (≈ 0.261 µM) | 0.1 µg/mL (≈ 0.131 µM) | > 100 µg/mL | 0.01 µg/mL (≈ 0.0131 µM) | > 100 µg/mL | 0.1 µg/mL (≈ 0.131 µM) | 0.01 µg/mL (≈ 0.0131 µM) | 0.1 µg/mL (≈ 0.131 µM) | 0.1 µg/mL (≈ 0.131 µM) | 0.1 µg/mL (≈ 0.131 µM) | 1 µg/mL (≈ 1.31 µM) | > 128 µg/mL | MIC [20]: 0.03 µg/mL (≈ 0.0392 µM); MIC [21]: 0.015 µg/mL (≈ 0.0196 µM); MIC [22]: 0.01 µg/mL (≈ 0.0131 µM); MIC [23]: ≤ 0.005 µg/mL; MIC [24]: 3.1 µg/mL (≈ 4.05 µM); MIC [25]: 0.01 µg/mL (≈ 0.0131 µM); MIC [26]: 0.1 µg/mL (≈ 0.131 µM)
3 | CCC1OC(=O)C(C)C(=O)C(C)C(OC2OC(C)CC(N(C)C)C2O)C(C)(OCC=Cc2cncc3ccccc23)CC(C)C(=O)C(C)C2NC(=O)OC12C (stereo not drawn) [Example 187, R is —CH2CH═CH-(4-isoquinolinyl)] | > 100 µg/mL | 0.02 µg/mL (≈ 0.0261 µM) | > 100 µg/mL | 100 µg/mL (≈ 131 µM) | 0.39 µg/mL (≈ 0.509 µM) | 2 µg/mL (≈ 2.61 µM) | 0.02 µg/mL (≈ 0.0261 µM) | 0.02 µg/mL (≈ 0.0261 µM) | 0.78 µg/mL (≈ 1.02 µM) | 0.1 µg/mL (≈ 0.131 µM) | > 100 µg/mL | 0.1 µg/mL (≈ 0.131 µM) | > 100 µg/mL | 0.2 µg/mL (≈ 0.261 µM) | 0.1 µg/mL (≈ 0.131 µM) | 0.1 µg/mL (≈ 0.131 µM) | 0.1 µg/mL (≈ 0.131 µM) | 0.1 µg/mL (≈ 0.131 µM) | 0.25 µg/mL (≈ 0.326 µM) | > 16 µg/mL | MIC [20]: 0.03 µg/mL (≈ 0.0392 µM); MIC [21]: 0.03 µg/mL (≈ 0.0392 µM); MIC [22]: 0.02 µg/mL (≈ 0.0261 µM); MIC [23]: ≤ 0.005 µg/mL; MIC [24]: 25 µg/mL (≈ 32.6 µM); MIC [25]: 0.01 µg/mL (≈ 0.0131 µM); MIC [26]: 0.1 µg/mL (≈ 0.131 µM)
4 | CCC1OC(=O)C(C)C(=O)C(C)C(OC2OC(C)CC(N(C)C)C2O)C(C)(OCC=Cc2ccc3c(c2)OCO3)CC(C)C(=O)C(C)C2NC(=O)OC12C (stereo not drawn) [Example 188, R is —CH2CH═CH-(3,4-methylenedioxyphenyl)] | > 100 µg/mL | 0.05 µg/mL (≈ 0.0659 µM) | > 100 µg/mL | > 100 µg/mL | 0.78 µg/mL (≈ 1.03 µM) | 8 µg/mL (≈ 10.5 µM) | 0.2 µg/mL (≈ 0.264 µM) | 0.02 µg/mL (≈ 0.0264 µM) | 0.78 µg/mL (≈ 1.03 µM) | 0.39 µg/mL (≈ 0.514 µM) | > 100 µg/mL | 0.1 µg/mL (≈ 0.132 µM) | > 100 µg/mL | 0.1 µg/mL (≈ 0.132 µM) | 0.1 µg/mL (≈ 0.132 µM) | 0.1 µg/mL (≈ 0.132 µM) | 0.2 µg/mL (≈ 0.264 µM) | 0.2 µg/mL (≈ 0.264 µM) | 1 µg/mL (≈ 1.32 µM) | > 64 µg/mL | MIC [20]: 0.03 µg/mL (≈ 0.0395 µM); MIC [21]: 0.03 µg/mL (≈ 0.0395 µM); MIC [22]: ≤ 0.005 µg/mL; MIC [23]: ≤ 0.005 µg/mL; MIC [24]: 25 µg/mL (≈ 32.9 µM); MIC [25]: 0.01 µg/mL (≈ 0.0132 µM); MIC [26]: 0.1 µg/mL (≈ 0.132 µM)
5 | CCC1OC(=O)C(C)C(=O)C(C)C(OC2OC(C)CC(N(C)C)C2O)C(C)(OCC=Cc2cccc3cccnc23)CC(C)C(=O)C(C)C2NC(=O)OC12C (stereo not drawn) [Example 189, R is —CH2CH-(8-quinolyl)] | > 100 µg/mL | 0.05 µg/mL (≈ 0.0653 µM) | 50 µg/mL (≈ 65.3 µM) | 100 µg/mL (≈ 131 µM) | 0.39 µg/mL (≈ 0.509 µM) | 8 µg/mL (≈ 10.4 µM) | 0.1 µg/mL (≈ 0.131 µM) | 0.02 µg/mL (≈ 0.0261 µM) | 0.78 µg/mL (≈ 1.02 µM) | 0.05 µg/mL (≈ 0.0653 µM) | > 100 µg/mL | 0.1 µg/mL (≈ 0.131 µM) | > 100 µg/mL | 0.2 µg/mL (≈ 0.261 µM) | 0.1 µg/mL (≈ 0.131 µM) | 0.2 µg/mL (≈ 0.261 µM) | 0.1 µg/mL (≈ 0.131 µM) | 0.2 µg/mL (≈ 0.261 µM) | 0.5 µg/mL (≈ 0.653 µM) | > 32 µg/mL | MIC [20]: 0.125 µg/mL (≈ 0.163 µM); MIC [21]: 0.06 µg/mL (≈ 0.0783 µM); MIC [22]: ≤ 0.005 µg/mL; MIC [23]: ≤ 0.005 µg/mL; MIC [24]: 50 µg/mL (≈ 65.3 µM); MIC [25]: ≤ 0.005 µg/mL; MIC [26]: 0.2 µg/mL (≈ 0.261 µM)
